Data taken from US20230083973A1, “SUBSTITUTED CYCLOPROPYL-2,2'-BIP[…], ANALOGUES THEREOF, AND METHODS USING SAME” (priority 2019, published 2023).
Where two headings read alike, the source gives them in different places.

Tested on: HBsAg
Test: HBsAg assay: inhibition of HBsAg in HepG2.2.15 cells (chemiluminescence immunoassay of supernatant)
Assay type: cell-based, hepatitis B virus
Settings: HBsAg in supernatant at day 6 after exposure to compound, 0.5% DMSO
How it was run: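 Secreted HBsAg quantified by CLIA in day-6 supernatants of HepG2.2.15 cultures given compound dilutions at 0.5% final DMSO, with one compound/medium replenishment after 2–3 days. Dose-response fits gave EC50 (50% inhibition); viability checked separately by CellTiter-Glo.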

[1] = read-out: sAg EC50, HepG2.2.15 cells
[2] = Hepatitis B virus, HepG2.2.15, 144 h, read-out: sAg EC50, HepG2.2.15 cells

SMILES | EC50 [1] | EC50 [2]
Fc1ccc(C2CC2c2cnc(-c3ncccn3)nc2)cc1Cl (single isomer, unassigned) [Example 30, trans-5-(2-(3-Chloro-4-fluorophenyl)cyclopropyl)-2,2′-bipyrimidine] | 80 nM | –
COc1ccc(C2CC2c2cnc(-c3ncccn3)nc2)cc1OC (single isomer, unassigned) [Example 31, trans-5-(2-(3,4-Dimethoxyphenyl)cyclopropyl)-2,2′-bipyrimidine] | – | 330 nM
COc1ccc(C2CC2c2cnc(-c3ncccn3)nc2)cc1OC (single isomer, unassigned) [Example 32, trans-5-(2-(3,4-Dimethoxyphenyl)cyclopropyl)-2,2′-bipyrimidine] | 480 nM | –
COc1cc(C2CC2c2cnc(-c3ncccn3)nc2)ccc1Cl (single isomer, unassigned) [Example 33, trans-5-(2-(4-Chloro-3-methoxyphenyl)cyclopropyl)-2,2′-bipyrimidine] | 31 nM | –
COc1cc(C2CC2c2cnc(-c3ncccn3)nc2)ccc1Cl (single isomer, unassigned) [Example 34, trans-5-(2-(4-Chloro-3-methoxyphenyl)cyclopropyl)-2,2′-bipyrimidine] | 150 nM | –
CCc1cc(F)c(OC)cc1C1CC1c1cnc(-c2ncccn2)nc1 (single isomer, unassigned) [Example 35, trans-5-(2-(2-Ethyl-4-fluoro-5-methoxyphenyl)cyclopropyl)-2,2′-bipyrimidine] | – | 550 nM
CCc1cc(F)c(OC)cc1C1CC1c1cnc(-c2ncccn2)nc1 (single isomer, unassigned) [Example 36, trans-5-(2-(2-Ethyl-4-fluoro-5-methoxyphenyl)cyclopropyl)-2,2′-bipyrimidine] | 720 nM | –
CCCc1cc(F)c(OC)cc1C1CC1c1cnc(-c2ncccn2)nc1 (single isomer, unassigned) [Example 37, trans-5-(2-(4-Fluoro-5-methoxy-2-propylphenyl)cyclopropyl)-2,2′-bipyrimidine] | 2000 nM | –
CCCc1cc(F)c(OC)cc1C1CC1c1cnc(-c2ncccn2)nc1 (single isomer, unassigned) [Example 38, trans-5-(2-(4-Fluoro-5-methoxy-2-propylphenyl)cyclopropyl)-2,2′-bipyrimidine] | 150 nM | –
Fc1ccc(C2CC2c2cnc(-c3ncccn3)nc2)cc1OC(F)(F)F (single isomer, unassigned) [Example 39, trans-5-(2-(4-Fluoro-3-(trifluoromethoxy)phenyl)cyclopropyl)-2,2′-bipyrimidine] | 2000 nM | –
Fc1ccc(C2CC2c2cnc(-c3ncccn3)nc2)cc1OC(F)(F)F (single isomer, unassigned) [Example 40, trans-5-(2-(4-Fluoro-3-(trifluoromethoxy)phenyl)cyclopropyl)-2,2′-bipyrimidine] | 110 nM | –
CS(=O)(=O)N1CCN(c2cc(C3CC3c3cnc(-c4ncccn4)nc3)ccc2F)CC1 (single isomer, unassigned) [Example 41, trans-5-(2-(4-Fluoro-3-(4-(methylsulfonyl)piperazin-1-yl)phenyl)cyclopropyl)-2,2′-bipyrimidine] | 4000 nM | –
CS(=O)(=O)N1CCN(c2cc(C3CC3c3cnc(-c4ncccn4)nc3)ccc2F)CC1 (single isomer, unassigned) [Example 42, trans-5-(2-(4-Fluoro-3-(4-(methylsulfonyl)piperazin-1-yl)phenyl)cyclopropyl)-2,2′-bipyrimidine] | 220 nM | –
Fc1ccc(C2CC2c2cnc(-c3ncccn3)nc2)cc1N1CCC(F)(F)C1 (single isomer, unassigned) [Example 43, trans-5-(2-(3-(3,3-Difluoropyrrolidin-1-yl)-4-fluorophenyl)cyclopropyl)-2,2′-bipyrimidine] | 250 nM | –
Fc1ccc(C2CC2c2cnc(-c3ncccn3)nc2)cc1N1CCC(F)(F)C1 (single isomer, unassigned) [Example 44, trans-5-(2-(3-(3,3-Difluoropyrrolidin-1-yl)-4-fluorophenyl)cyclopropyl)-2,2′-bipyrimidine] | 110 nM | –
COc1cc(C2CC2c2cnc(-c3ncccn3)nc2)cc(F)c1Cl (single isomer, unassigned) [Example 45, trans-5-(2-(4-Chloro-3-fluoro-5-methoxyphenyl)cyclopropyl)-2,2′-bipyrimidine] | 270 nM | –
COc1cc(C2CC2c2cnc(-c3ncccn3)nc2)cc(F)c1Cl (single isomer, unassigned) [Example 46, trans-5-(2-(4-Chloro-3-fluoro-5-methoxyphenyl)cyclopropyl)-2,2′-bipyrimidine] | 35 nM | –
COC1CN(c2cc(C3CC3c3cnc(-c4ncccn4)nc3)ccc2F)C1 (single isomer, unassigned) [Example 47, trans-5-(2-(4-Fluoro-3-(3-methoxyazetidin-1-yl)phenyl)cyclopropyl)-2,2′-bipyrimidine] | 370 nM | –
COC1CN(c2cc(C3CC3c3cnc(-c4ncccn4)nc3)ccc2F)C1 (single isomer, unassigned) [Example 48, trans-5-(2-(4-Fluoro-3-(3-methoxyazetidin-1-yl)phenyl)cyclopropyl)-2,2′-bipyrimidine] | 32 nM | –

SMILES | EC50 [1] | EC50 [2]
Cc1cc(C2CC2c2cnc(-c3ncccn3)nc2)cc(OCC2CC2)c1Cl (single isomer, unassigned) [Example 49, trans-5-((2-(4-Chloro-3-(cyclopropylmethoxy)-5-methylphenyl)cyclopropyl)-2,2′-bipyrimidine] | 170 nM | –
Cc1cc(C2CC2c2cnc(-c3ncccn3)nc2)cc(OCC2CC2)c1Cl (single isomer, unassigned) [Example 50, trans-5-((2-(4-Chloro-3-(cyclopropylmethoxy)-5-methylphenyl)cyclopropyl)-2,2′-bipyrimidine] | 2000 nM | –
COc1cc(C2CC2c2cnc(-c3ncccn3)nc2)c(C)cc1Cl (single isomer, unassigned) [Example 51, trans-5-(2-(4-Chloro-5-methoxy-2-methylphenyl)cyclopropyl)-2,2′-bipyrimidine] | 290 nM | –
COc1cc(C2CC2c2cnc(-c3ncccn3)nc2)c(C)cc1Cl (single isomer, unassigned) [Example 52, trans-5-(2-(4-Chloro-5-methoxy-2-methylphenyl)cyclopropyl)-2,2′-bipyrimidine] | 1000 nM | –
OC1CN(c2cc(C3CC3c3cnc(-c4ncccn4)nc3)ccc2F)C1 (single isomer, unassigned) [Example 53, trans-1-(5-(2-([2,2′-Bipyrimidin]-5-yl)cyclopropyl)-2-fluorophenyl)azetidin-3-ol] | 500 nM | –
OC1CN(c2cc(C3CC3c3cnc(-c4ncccn4)nc3)ccc2F)C1 (single isomer, unassigned) [Example 54, trans-1-(5-(2-([2,2′-Bipyrimidin]-5-yl)cyclopropyl)-2-fluorophenyl)azetidin-3-ol] | 220 nM | –
COc1c(Cl)ccc(C2CC2c2cnc(-c3ncccn3)nc2)c1F (single isomer, unassigned) [Example 55, trans-5-(2-(4-Chloro-2-fluoro-3-methoxyphenyl)cyclopropyl)-2,2′-bipyrimidine] | 1000 nM | –
COc1c(Cl)ccc(C2CC2c2cnc(-c3ncccn3)nc2)c1F (single isomer, unassigned) [Example 56, trans-5-(2-(4-Chloro-2-fluoro-3-methoxyphenyl)cyclopropyl)-2,2′-bipyrimidine] | 470 nM | –
COc1cc(C2CC2c2cnc(-c3ncccn3)nc2)cc(C)c1Cl (single isomer, unassigned) [Example 57, trans-5-(2-(4-Chloro-3-methoxy-5-methylphenyl)cyclopropyl)-2,2′-bipyrimidine] | 63 nM | –
COc1cc(C2CC2c2cnc(-c3ncccn3)nc2)cc(C)c1Cl (single isomer, unassigned) [Example 58, trans-5-(2-(4-Chloro-3-methoxy-5-methylphenyl)cyclopropyl)-2,2′-bipyrimidine] | 290 nM | –
COc1cc(C2CC2c2cnc(-c3ncccn3)nc2)cc(Cl)c1Cl (single isomer, unassigned) [Example 59, trans-5-(2-(3,4-Dichloro-5-methoxyphenyl)cyclopropyl)-2,2′-bipyrimidine] | 32 nM | –
COc1cc(C2CC2c2cnc(-c3ncccn3)nc2)cc(Cl)c1Cl (single isomer, unassigned) [Example 60, trans-5-(2-(3,4-Dichloro-5-methoxyphenyl)cyclopropyl)-2,2′-bipyrimidine] | 250 nM | –
Cc1c(C2CC2c2cnc(-c3ncccn3)nc2)ccc(Cl)c1OCC1CC1 (single isomer, unassigned) [Example 61, trans-5-(2-(4-Chloro-3-(cyclopropylmethoxy)-2-methylphenyl)cyclopropyl)-2,2′-bipyrimidine] | 430 nM | –
Cc1c(C2CC2c2cnc(-c3ncccn3)nc2)ccc(Cl)c1OCC1CC1 (single isomer, unassigned) [Example 62, trans-5-(2-(4-Chloro-3-(cyclopropylmethoxy)-2-methylphenyl)cyclopropyl)-2,2′-bipyrimidine] | 49000 nM | –
CN(C)c1cc(C2CC2c2cnc(-c3ncccn3)nc2)ccc1F (single isomer, unassigned) [Example 63, trans-5-(2-([2,2′-Bipyrimidin]-5-yl)cyclopropyl)-2-fluoro-N,N-dimethylaniline] | 390 nM | –
CN(C)c1cc(C2CC2c2cnc(-c3ncccn3)nc2)ccc1F (single isomer, unassigned) [Example 64, trans-5-(2-([2,2′-Bipyrimidin]-5-yl)cyclopropyl)-2-fluoro-N,N-dimethylaniline] | 3000 nM | –
O[C@H]1CCN(c2cc(C3CC3c3cnc(-c4ncccn4)nc3)ccc2F)C1 (single isomer, unassigned) [Example 65] | 580 nM | –
O[C@H]1CCN(c2cc(C3CC3c3cnc(-c4ncccn4)nc3)ccc2F)C1 (single isomer, unassigned) [Example 66] | 230 nM | –
